{
  "source": "patent EP3440167B2",
  "about": "“FRAGRANCED COMPOSITIONS AND THEIR USE” (Unilever IP Holdings B.V., priority 2016, dated 2017)",
  "format_in_all_cases": "physicochemical",
  "key": {"[1]": {"experiment": "Experiment A: ozone chamber exposure of β-ionone on a surface, headspace SPME-GCMS", "details": "1 hour exposure", "method": "A β-ionone solution (10 % w/w in ethanol) was applied to a surface (20 microlitres) and was allowed to dry for one hour in a fume cupboard. The surface was then placed at the base of the ozone chamber. The ozone generator plug-in was turned on for the required time at regular intervals to achieve the desired ozone concentration inside the chamber (either 250 ppb or 350 ppb). After exposure of a surface to ozone for the desired time of 1 hour the surface was removed from the chamber and placed in a capped PVC container. The surface was left in the PVC container for 10 min and then an additional 20 min with an SPME fibre exposed to the head-space environment of the container. The headspace was measured by SPME-GCMS and the ratios of β-cyclocitral to β-ionone determined as follows: […]"}, "[2]": {"experiment": "Example 3: exposure of β-ionone on filter paper in ozone-free glovebox, GC-MS of headspace and extract", "details": "ozone below detection limit, 1 hour exposure", "method": "A 0.3% solution of β-ionone in ethanol and a 0.3% solution of β-cyclocitral were prepared. 1 ml of the β-ionone was placed on a piece of filter paper (cellulose, 75 mm dia.) and left for 2 minutes for the ethanol to evaporate. The filter paper was then placed in a glovebox containing an ozone \"scrubber\" and an ozone monitor (Aeroqual series 200 fitted with a 0 to 0.5 ppm sensor). Throughout the experiment the ozone level inside the glovebox was below the detection limit of the monitor. The ozone scrubber comprised an air pump (Interpet AirVolution AV4), pumping air at a rate of 600 l/hr through 0.75 g/l sodium thiosulphate solution.\nAfter 1 hour exposure the filter paper was sealed in a 500 ml glass jar that had been adapted such that a SPME fibre could be introduced via a septum in the lid. The headspace above the sample was analysed using a Carboxen/DVB/PDMS SPME fibre using a 30 minute exposure. The fibre was then analysed by GC-MS. The filter paper was then removed, placed in a 28 ml glass vial and 3 ml of ethanol added. The vial was rollered for two hours after which the free ethanol was removed and analysed by GC-MS. The β-cyclocitral in ethanol solution was also analysed to indicate the appropriate retention time. […]"}, "[3]": {"experiment": "Experiment B: ozone chamber exposure at 100 ppb over time, headspace SPME-GCMS", "details": "100 ppb ozone", "method": "A β-ionone solution (10 % w/w in ethanol) was applied to a surface (20 microlitres) and was allowed to dry for one hour in a fume cupboard. The surface was then placed at the base of the ozone chamber. The ozone generator plug-in was turned on for the required time at regular intervals to achieve the desired ozone concentration inside the chamber (either 250 ppb or 350 ppb). After exposure of a surface to ozone for the desired time of 1 hour the surface was removed from the chamber and placed in a capped PVC container. The surface was left in the PVC container for 10 min and then an additional 20 min with an SPME fibre exposed to the head-space environment of the container. The headspace was measured by SPME-GCMS and the ratios of β-cyclocitral to β-ionone determined as follows:\nThis experiment was run like Experiment A, except that the ozone level used was 100 ppb and after 1,2,3,4 and 5 hours measurements of headspace were made and the ratios of β-cyclocitral / β-ionone were calculated from headspace concentration."}},
  "data": [
    {"smiles": "CC(=O)/C=C/C1=C(C)CCCC1(C)C", "note": "[β-ionone]", "values": [
      {"measurement": "ratio of β-cyclocitral to β-ionone", "setting": "[1]; 250 ppb ozone", "value": 0.72},
      {"measurement": "ratio of β-cyclocitral to β-ionone", "setting": "[1]; 350 ppb ozone", "value": 2.67},
      {"measurement": "β-cyclocitral detected in the headspace", "setting": "[2]; SPME GC-MS of headspace", "value": "No β-cyclocitral was detected"},
      {"measurement": "β-cyclocitral detected on the filter paper", "setting": "[2]; ethanol extract of filter paper, GC-MS", "value": "No β-cyclocitral was detected"},
      {"measurement": "ratio of β-cyclocitral / β-ionone", "setting": "[3]; 1 hour", "value": 0.43},
      {"measurement": "ratio of β-cyclocitral / β-ionone", "setting": "[3]; 2 hour", "value": 0.95},
      {"measurement": "ratio of β-cyclocitral / β-ionone", "setting": "[3]; 3 hour", "value": 1.87},
      {"measurement": "ratio of β-cyclocitral / β-ionone", "setting": "[3]; 4 hour", "value": 7.00},
      {"measurement": "ratio of β-cyclocitral / β-ionone", "setting": "[3]; 5 hour", "value": 11.00}
    ]}
  ]
}
